Columns and labels:
[1] = system: CD4-positive T cells derived from the mutant mouse; assay: Cytokine-dependent cell proliferation activity (WST-8 assay); assay type: cell-based; conditions: cytokine/PMA-stimulated, 48 hours culture, Jak inhibitor I 3-100 nM, Jak3 inhibitor I 125-500 μM
Description: Cytokine-dependent cell proliferation activity was measured as described below. Single cells of the thymus in suspension were cultured at a density of 5×10^5 cells/well, and stimulated with PMA (10 ng/ml) [IL-2 (25 ng/ml), IL-4 (25 ng/ml), IL-6 (100 ng/ml), IL-7 (25 ng/ml), IL-12 (1-100 ng/ml) or IFN-γ (100 ng/ml) (Peprotech and R&D) was added]. Used in some experiments was the pan-Jak inhibitor Jak inhibitor I (3-100 nM, pyridone 6; Calbiochem) or Jak3 inhibitor I (125-500 μM, WHI-P131; Calbiochem). The cells were cultured for 48 hours, and their proliferation was measured by an assay using WST-8 (Nacalai Tesque) and soluble tetrazolium/formazan.

[2] = system: Jak1; conditions: Kumamoto T. et al., Cancer Lett. 2009; cited from earlier work
[3] = system: EGF receptor (EGFR); conditions: Kumamoto T. et al., Cancer Lett. 2009; cited from earlier work
[4] = system: ear skins of mutant mice; assay: Topical application of Jak inhibitor to ear skin of mutant mice, development of dermatitis; assay type: in vivo, mouse
Description: (§1) A mouse model of atopic dermatitis was generated according to a detailed protocol reported [Masuya et al., Hum Mol Genet. 16, 2366-2375 (2007); http://www.brc.riken.jp/lab/gsc/mouse/]. C57BL/6J mice and C3H/HeJ mice were purchased from CLEA Japan. C57BL/6-kit^W-sh/W-sh mice were obtained from the RIKEN BioResource Center. C57BL/6-RAG1^−/− mice were allowed to propagate spontaneously. Severity scores were determined using an improved version of a reported scale [Matsuda et al., Int Immunol. 9, 461-466 (1997)]. The mice were reared in an SPF (specific pathogen-free) environment and subjected to experiments in compliance with the guidelines with the approval of RIKEN's Animal Experiment Committee.
(§2) Jak inhibitor I (150 μM, pyridone 6; Calbiochem) in suspension in acetone/olive oil (4:1), 10 μl, was topically applied to the ventral and dorsal parts of the ear skin of each mutant mouse three times a week, starting at 4 weeks after birth.
The above-described Example has shown that dermatitis in the mutant mice is caused by excess activation of Jak1 and resulting defect of the skin barrier. To verify this hypothesis, a Jak inhibitor was coated on the ear skins of mutant mice at 4 weeks after birth and their litter mates. To allow the inhibitor to deeply penetrate the epidermal layer, a combination of acetone and olive oil was used as the solvent for the inhibitor. In fact, this solvent itself was harmful to the formation of the epidermal barrier; the development of dermatitis in the mutant mice was promoted by administering this solvent.

[5] = system: pY-Jak1 and Ki67 in the ear skins of the mutant mice; assay: Histoimmunological staining of differentiation marker molecules in ear skin after Jak inhibitor; assay type: in vivo, mouse; conditions: mutant mice treated with Jak inhibitor for 2 weeks from Week 4 of age
Description: as §2
For analysis by immunofluorescence, frozen ear tissue specimens were fixed and stained using an antibody against pY-Jak1 (Cell Signaling), an antibody against Ki67 (Abcam), and an antibody against K6, K14 or K10 (Covance). Next, samples were incubated with an FITC- or Cy3-conjugated goat anti-rabbit IgG secondary antibody (Zymed). The slides were further counter-stained with hematoxylin or DAPI (Vector Laboratories).
Since some differentiation marker molecules were abnormally expressed in the epidermal layer, how the expression of those differentiation marker molecules changed with inhibition of Jak1 activity with a Jak inhibitor in mutant mice was examined by histoimmunological staining (FIG. 5c). By inhibiting Jak1 activity, the expression of pY-Jak1 and the expression of Ki67 in the ear skins of the mutant mice could be reduced. In contrast, in the mice receiving the solvent alone, Jak1 and Ki67 were activated in excess. […] In the ear skins of mice treated with acetone-olive oil alone, all markers were expressed at higher levels than in the skins of non-treated mice.

[6] = system: ear skins of mutant mice; assay: Petrolatum coating of ear skin of mutant mice, development of dermatitis; assay type: in vivo, mouse; conditions: Jak inhibitor added to petrolatum
Description: as §1
To determine whether the destruction of the skin permeability barrier causes the development of dermatitis in the mutant mice, their ear skins were coated with petrolatum alone three times a week for 4 to 16 weeks.

## COc1cc2ncnc(Nc3ccc(O)cc3)c2cc1OC [WHI-P131]
[1]
  inhibition of accentuated (excess) proliferation of lymphocytes: not
[1]; listed as Jak 3 inhibitor I
  inhibition of accentuated (excess) proliferation of lymphocytes: lack of proliferation inhibition

## O=c1c(O)c(-c2cc(O)c(O)c(O)c2)oc2cc(O)cc(O)c12 [myricetin, 3,3′,4′,5,5′,7-hexahydroxyflavone]
[2]
  phosphorylation of Jak1: inhibit
[3]
  self-phosphorylation of EGF receptor (EGFR): increase

## CC(C)(C)c1nc2c3cc[nH]c(=O)c3c3cc(F)ccc3c2[nH]1 [pyridone 6]
[1]
  inhibition of accentuated (excess) proliferation of lymphocytes: dose-dependently inhibited
[1]; listed as Jak inhibitor I
  inhibition of accentuated (excess) proliferation of lymphocytes: inhibited dose-dependently
[4]; 150 μM in acetone/olive oil, 10 μl topically on ear skin three times a week from 4 weeks after birth
  delay of development of dermatitis compared with solvent alone: 1 week
[4]; 150 μM in acetone/olive oil, topical on ear skin three times a week from 4 weeks after birth
  clinical symptoms compared with solvent alone: less severe clinical symptoms
[4]; Jak inhibitor applied to the skin, FIG. 5
  development of dermatitis (in words): suppressed
[4]; coating with the Jak inhibitor on ear skin
  progression of the illness after development of dermatitis: suppressed the progression of the illness
[5]
  expression of Ki67 in ear skin: reduced
  expression of pY-Jak1 in ear skin: reduced
[6]
  additive effect on suppression of development of the illness: no additive effect

Reference: patent US20120034226A1, “DIAGNOSTIC METHOD OF SKIN INFLAMMATORY DISEASE” (RIKEN, priority 2009, published 2012)
